Common to all, as to assay type: cell-based
Experiment [1] concerns phosphorylated Akt protein. The experiment in a line: Cellular PI3K / Akt pathway assay (phospho-Akt Ser473 sandwich ELISA). The settings on record: Homo sapiens; MCF7 cells, ß-Heregulin (20ng/ml) stimulation, 48h incubation. How it is done: In order to study the cellular activity of the compounds according to the present invention, an Enzyme Linked Immunosorbent Assay (ELISA)-based assay has been used specific phospho-AKT. The assay is based on a Sandwich ELISA kit (PathScan™ Phospho-Akt1 (Ser473); Cell Signaling, USA; #7160). The ELISA Kit detects endogenous levels of phosphorylated Akt protein. A phospho-Akt (Ser473) antibody (Cell Signaling, USA; #9271) has been coated onto the microwells. After incubation with cell lysates, the coated antibody captures the phosphorylated Akt protein. Following extensive washing, Akt1 monoclonal antibody (Cell Signaling, USA; #2967) is added to detect the captured phospho-Akt1 protein. HRP-linked anti-mouse antibody (HRP: horseradish peroxidase; Cell Signaling, USA; #7076) is then used to recognize the bound detection antibody. HRP substrate (= 3,3',5,5'-tetramethylbenzidine (TMB); Cell Signaling, USA; #7160) is added to develop colour. The magnitude of optical density for this developed color is proportional to the quantity of phosphorylated Akt protein. MCF7 cells (ATCC HTB-22) are seeded into 96 well fate bottom plates at a density of 10000 cells/well. 24 hours after seeding, the cells are serum starved using low-serum medium (IMEM media including 0,1% charcoal treated FCS (FCS: fetal calf serum)). […] To stimulate Akt phosphorylation, ß-Heregulin (20ng/ml ß-HRG) is added in parallel to the compounds. Wells containing unstimulated control cells (no ß-Heregulin stimulation) are incubated with or without the diluted compound. Wells containing untreated control cells (no compound) are filled with medium containing 0.5% v:v DMSO and are or are not stimulated with ß-Heregulin. Cells are harvested and lysed with brief sonification in 1x cell lysis buffer (20mM Tris (pH7.5), 150 mM NaCl, 1 mM ethylene diaminetetraacetate (EDTA), 1 mM ethylene glycolbis(2-aminoethyl)-N,N,N',N'-tetraacetic acid (EGTA), 1vol% Triton X-100, 2.5mM sodium pyrophosphate, 1 mM β-glycerolphosphate, 1 mM Na3VO4, 1µg/ml leupeptin). The lysate is centrifuged for 10 min. at 4°C and the supernatant is transferred to a new tube. 100 µl of sample diluent (0.1vol% Tween-20, 0.1vol% sodium azide in phosphate buffered saline (PBS)) are added to a microcentrifuge tube and 100 µl of cell lysate are transferred into the tube and vortexed. 100 µl of each diluted cell lysate are added to the appropriate ELISA well, and incubated overnight at 4°C. The plates are washed 4 times with 1x wash buffer (1vol% tween-20, 0.33vol% thymol, in PBS). Next 100 µl of detection antibody (Akt1 (2H10) monoclonal detection antibody; Cell Signaling, USA; #2967) are added to each well and incubation continued for 1h at 37°C. The washing procedure is repeated between each step. 100µl of secondary antibody (anti-mouse IgG HRP-linked antibody; Cell Signaling, USA; #7076) are added to each well and incubated for 30 min. at 37°C. Than, 100µl of TMB substrate (0.05% 3,3',5,5' tetramethylbenzidine, 0.1 % hydrogen peroxide, complex polypeptides in a buffered solution; Cell Signaling, USA; #7160) are added to each well and incubated for 30 min. at 25°C. Finally 100 µl of STOP solution (0.05vol% α and β unsaturated carbonyl compound) are added to each well and the plate are shaked gently. The absorbance is measured at λ =450 nm (Wallac Victor2; Perkin Elmer, USA) within 30 min. after adding the STOP solution. The analysis of the data is performed using a statistical program (Excel; Microsoft, USA). Preferred compounds show an inhibitory activity towards Akt phosphorylation below 10µM.
In general terms: In an ELISA, binding on a coated surface is turned into a signal by an enzyme label.

Experiment [2] relates to phosphorylated GSK3. In words: Cellular pGSK3 assay (phospho-GSK3 Ser9 sandwich ELISA). The conditions noted are these: Homo sapiens; MCF7 cells, 48h incubation, IC50 of pGSK3 inhibition. As for the experimental part: In order to study the cellular activity of the compounds according to the present invention, an ELISA-based assay has been established for the phosphorylated protein glycogen synthetase kinase 3 (GSK3). The assay is based on a solid phase sandwich ELISA that detects endogenous levels of phosphorylated GSK3 using a phospho-GSK3 (Ser9) specific antibody (BioSource International, Inc.; Catalog #KHO0461). After incubation with cell lysates, the coated antibody captures the phosphorylated GSK3 protein. Following extensive washing, GSK3 polyclonal antibody is added to detect the captured phospho-GSK3 protein. Secondary antibody (anti-rabbit IgG-HRP) is then used to recognize the bound detection antibody. After the second incubation and washing to remove all the excess anti-rabbit IgG-HRP, a substrate solution is added, which is acted upon by the bound enzyme to produce color. The intensity of this colored product is directly proportional to the concentration of GSK-3β [pS9] present in the original specimen. MCF7 cells (ATCC HTB-22) were seeded into 96 well fate bottom plates at a density of 10000 cells/well. After 24 h 1 µl each of the compound dilutions (test compounds were dissolved as 10 mM solutions in dimethylsulfoxide (DMSO) and subsequently diluted) were added into each well of the 96 well plates and incubated for 48h at 37°C in a humidified athmosphere containing 5% CO2. Cells were harvested and lysed in cell extraction buffer (10 mM Tris, pH 7.4, 100 mM NaCl, 1 mM EDTA, 1 mM EGTA, 1 mM NaF, 20 mM Na4P2O7, 2 mM Na3VO4, 1% Triton X-100, 10vol% glycerol, 0.1vol% SDS, 0.5vol% deoxycholate, 1 mM phenylmethylsulfonylfluorid (PMSF)). The lysate were centrifuged for 10 min. at 4°C and the supernatant were transferred to a new tube. 50 µl of sample diluent (standard diluent buffer, Biosource) were added and 100 µl of cell lysate transferred into the tube and vortexed. 100 µl of each diluted cell lysate were added to the appropriate ELISA well plate and incubated for 3h at room temperature. The plates were washed 4 times with 1x wash buffer (Biosource). 50 µl of detection antibody (GSK3 (Ser9) detection antibody; BioSource) were added to each well and incubated for 30 min. at room temperature. The washing procedure was repeated between each step. 100µl of HRP-linked secondary antibody (anti-mouse IgG HRP-linked antibody) were added to each well and incubated for 30 min. at room temperature. 100µl of TMB substrate (0.05vol% 3,3',5,5' tetramethylbenzidine, 0.1vol% hydrogen peroxide, complex polypeptides in a buffered solution; Biosource) were added to each well and incubated for 30 min. at room temperature. Finally 100 µl of Stop solution (0.05vol% α and β unsaturated carbonyl compound) were added to each well and the plate were shaked gently for a few seconds. The absorbance was measured at λ = 450 nm (Wallac Victor2; Perkin Elmer, USA) within 30 min. after adding the stop solution. The analysis of the data was performed using a statistical program (Excel; Microsoft, USA) and the IC50 of pGSK3 inhibition was determined.

Experiment [3] concerns OvCAR3 cells. The experiment in a line: Cellular proliferation / Cytotoxicity assay (Alamar Blue / Resazurin cell viability). The conditions noted are these: Homo sapiens, OVCAR-3, 48h incubation, read-out: Anti-proliferative / Cytotoxic activity (OvCAR3 cells). As for the experimental part:
Wells containing untreated control cells were filled with 200 µl DMEM (Dulbecco's Modified Eagle Medium) containing 0.5vol% v:v DMSO. The cells are then incubated with the substances for 48h at 37°C in a humidified atmosphere containing 5vol% CO2. To determine the viability of the cells, 20 µl of a Resazurin solution (90mg / I) are added. […] Viabilities are expressed as % values.
For orientation: The colour change of resazurin is a common sign of viable cells or microbes.

Turning to `c1ccc(-c2nc(C3CCN(Cc4ccc(-c5nc6ccccn6c5-c5ccncc5)cc4)CC3)n[nH]2)nc1` [Example 16, 3-pyridin-4-yl-2-(4-{[4-(5-pyridin-2-yl-1,2,4-triazol-3-yl)piperidin-1-yl]methyl}phenyl)imidazo[1,2-a]pyridine], the IC50 in experiment [1] is 1 to 10 µM; in experiment [2] it was 1 to 10 µM; in experiment [3] it was below 10 µM.

In the case of `c1ccc(-c2nc(C3CCN(Cc4ccc(-c5nc6ccccn6c5-c5cccs5)cc4)CC3)n[nH]2)nc1` [Example 17, 2-(4-{[4-(5-pyridin-2-yl-1,2,4-triazol-3-yl)piperidin-1-yl]methyl}phenyl)-3-(2-thienyl)imidazo[1,2-a]pyridine], the IC50 in experiment [1] was below 1 µM; in experiment [2] it was 1 to 10 µM; in experiment [3], below 10 µM.

Consider `Fc1ccc(-c2c(-c3ccc(CN4CCC(c5n[nH]c(-c6ccccn6)n5)CC4)cc3)nc3ncccn23)cc1` [Example 18, 3-(4-fluorophenyl)-2-(4-{[4-(5-pyridin-2-yl-1,2,4-triazol-3-yl)piperidin-1-yl]methyl}phenyl)imidazo[1,2-a]pyrimidine], for which the figures for the IC50 in experiment [1], in experiment [2] and in experiment [3] were 1 to 10 µM, 1 to 10 µM and below 10 µM, respectively.

`Cc1ccn2c(-c3ccccc3)c(-c3ccc(CN4CCC(c5n[nH]c(-c6ccccn6)n5)CC4)cc3)nc2n1` [Example 19, 7-methyl-3-phenyl-2-(4-{[4-(5-pyridin-2-yl-1,2,4-triazol-3-yl)piperidin-1-yl]methyl}phenyl)imidazo[1,2-a]pyrimidine]: the figures for the IC50 in experiment [1], in experiment [2] and in experiment [3] were below 1 µM, below 1 µM and below 10 µM, respectively.

With `COc1ccc(-c2c(-c3ccc(CN4CCC(c5n[nH]c(-c6ccccn6)n5)CC4)cc3)nc3ncccn23)cc1` [Example 20, 3-(4-methoxyphenyl)-2-(4-{[4-(5-pyridin-2-yl-1,2,4-triazol-3-yl)piperidin-1-yl]methyl}phenyl)imidazo[1,2-a]pyrimidine], the IC50 in experiment [1], in experiment [2] and in experiment [3] was above 10 µM in each case.

For `Clc1cnc2nc(-c3ccc(CN4CCC(c5n[nH]c(-c6ccccn6)n5)CC4)cc3)c(-c3ccccc3)n2c1` [Example 21, 6-chloro-3-phenyl-2-(4-{[4-(5-pyridin-2-yl-1,2,4-triazol-3-yl)piperidin-1-yl]methyl}phenyl)imidazo[1,2-a]pyrimidine], the figures for the IC50 in experiment [1], in experiment [2] and in experiment [3] were below 1 µM, 1 to 10 µM and below 10 µM, respectively.

On to `Fc1ccc2nc(-c3ccc(CN4CCC(c5n[nH]c(-c6ccccn6)n5)CC4)cc3)c(-c3ccccc3)n2c1` [Example 22, 6-fluoro-3-phenyl-2-(4-{[4-(5-pyridin-2-yl-1,2,4-triazol-3-yl)piperidin-1-yl]methyl}phenyl)imidazo[1,2-a]pyridine], for which the IC50 is below 1 µM in experiment [1], 1 to 10 µM in experiment [2] and below 10 µM in experiment [3].

On to `Ic1cnc2nc(-c3ccc(CN4CCC(c5n[nH]c(-c6ccccn6)n5)CC4)cc3)c(-c3ccccc3)n2c1` [Example 23, 6-iodo-3-phenyl-2-(4-{[4-(5-pyridin-2-yl-1,2,4-triazol-3-yl)piperidin-1-yl]methyl}phenyl)imidazo[1,2-a]pyrimidine], for which the IC50 in experiment [1] was below 1 µM; in experiment [2], 1 to 10 µM; in experiment [3], below 10 µM.

Take `COc1ccn2c(-c3ccccc3)c(-c3ccc(CN4CCC(c5n[nH]c(-c6ccccn6)n5)CC4)cc3)nc2n1` [Example 24, 7-methoxy-3-phenyl-2-(4-{[4-(5-pyridin-2-yl-1,2,4-triazol-3-yl)piperidin-1-yl]methyl}phenyl)imidazo[1,2-a]pyrimidine]: the IC50 was below 1 µM in experiment [1], below 1 µM in experiment [2] and below 10 µM in experiment [3].

For the compound `Brc1cccn2c(-c3ccccc3)c(-c3ccc(CN4CCC(c5n[nH]c(-c6ccccn6)n5)CC4)cc3)nc12` [Example 25, 8-bromo-3-phenyl-2-(4-{[4-(5-pyridin-2-yl-1,2,4-triazol-3-yl)piperidin-1-yl]methyl}phenyl)imidazo[1,2-a]pyridine], the IC50 was below 1 µM in experiment [1], below 1 µM in experiment [2] and below 10 µM in experiment [3].

The values are drawn from patent EP2062893A1, “Fused imidazoles for cancer treatment” (Bayer Schering Pharma AG, priority 2007, dated 2009).
